# Reference: patent US20070179122A1, “Beta-Aminoacid-Derivatives As Factor Xa Inhibitors” (Sanofi-Aventis Deutschland GmbH, priority 2004, published 2007)
# Biological target: T1, human factor Xa (Homo sapiens, UniProt P00742)
# T1 construct: 25 μl human factor Xa (Enzyme Research Laboratories, Inc; South Bend, Ind.); purchased Enzyme Research Laboratories, Inc; South Bend, Ind
# Test: Factor Xa Assay (chromogenic, purified enzyme)
# Format: biochemical
# Conditions: inhibition constant for inhibition of factor Xa; chromogenic substrate S-2765 140 μM, enzyme 0.5 nM, 25° C., pH 7.8; Ki=IC50/{1+(substrate concentration/Km)}; read-out: Ki(FXa)
# Text: The ability of the compounds of the formula I to inhibit factor Xa or factor VIIa or other enzymes like thrombin, plasmin, or trypsin can be assessed by determining the concentration of the compound of the formula I that inhibits enzyme activity by 50%, i. e. the IC50 value, which was related to the inhibition constant Ki. Purified enzymes were used in chromogenic assays. […] For calculating the inhibition constant Ki, the IC50 value was corrected for competition with substrate using the formula Ki=IC50/{1+(substrate concentration/Km)} wherein Km is the Michaelis-Menten constant (Chen and Prusoff, Biochem. Pharmacol. 22 (1973) 3099-3108; I. H. Segal, Enzyme Kinetics, 1975, John Wiley & Sons, New York, 100-125; which were incorporated herein by reference). a) Factor Xa Assay
# The IC50 was determined by combining in appropriate wells of a Costar half-area microtiter plate 25 μl human factor Xa (Enzyme Research Laboratories, Inc.; South Bend, Ind.) in TBS-PEG; 40 μl 10% (v/v) DMSO in TBS-PEG (uninhibited control) or various concentrations of the compound to be tested diluted in 10% (v/v) DMSO in TBS-PEG; and substrate S-2765 (N(α)-benzyloxycarbonyl-D-Arg-Gly-L-Arg-p-nitroanilide; Kabi Pharmacia, Inc.; Franklin, Ohio) in TBS-PEG.
# The assay was performed by pre-incubating the compound of formula I plus enzyme for 10 min. Then the assay was initiated by adding substrate to obtain a final volume of 100 μl. The initial velocity of chromogenic substrate hydrolysis was measured by the change in absorbance at 405 nm using a Bio-tek Instruments kinetic plate reader (Ceres UV900HDi) at 25° C. during the linear portion of the time course (usually 1.5 min after addition of substrate). The enzyme concentration was 0.5 nM and substrate concentration was 140 μM.
# T1 sequence (P00742 235-488 limits assumed): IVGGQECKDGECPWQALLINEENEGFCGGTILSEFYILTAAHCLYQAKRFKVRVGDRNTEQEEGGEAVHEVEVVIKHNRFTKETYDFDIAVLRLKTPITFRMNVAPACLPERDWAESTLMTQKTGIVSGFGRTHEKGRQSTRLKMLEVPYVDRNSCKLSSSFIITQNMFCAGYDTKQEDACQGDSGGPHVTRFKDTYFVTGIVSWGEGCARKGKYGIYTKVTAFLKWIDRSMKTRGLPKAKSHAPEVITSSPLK
# T1 sequence (P00742 41-179 partner limits assumed): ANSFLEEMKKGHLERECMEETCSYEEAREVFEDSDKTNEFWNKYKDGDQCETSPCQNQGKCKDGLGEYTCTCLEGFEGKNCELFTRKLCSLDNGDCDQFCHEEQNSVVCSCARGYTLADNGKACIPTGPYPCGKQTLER
row,Ki [nM],SMILES
1,8,"O=C(NCC(F)(F)C(=O)Nc1ccc(-n2ccncc2=O)cc1)c1ccc(Cl)s1 [Example 10, 5-Chloro-thiophene-2-carboxylic acid {2,2-difluoro-2-[4-(2-oxo-2H-pyrazin-1-yl)-phenylcarbaminyl]-ethyl}-amide]"
2,1390,"O=C(CCNC(=O)c1ccc(Cl)cc1)Nc1ccc(N2CCOCC2=O)cc1 [Example 3, 4-Chloro-N-{2-[4-(3-oxo-morpholin-4-yl)-phenylcarbaminyl]-ethyl}-benzamide]"
3,260,"O=C(CCNC(=O)c1ccc(Cl)s1)Nc1ccc(-n2ccc(=O)cc2)cc1 [Example 21, 5-Chloro-thiophene-2-carboxylic acid {2-[4-(4-oxo-4H-pyridin-1-yl)-phenylcarbaminyl]-ethyl}-amide]"
4,100,"N=C(N)c1cccc(C(=O)NCCC(=O)Nc2ccc(-n3ccncc3=O)cc2)c1 [Example 12, 3-Carbamimidoyl-N-{2-[4-(2-oxo-2H-pyrazin-1-yl)-phenylcarbaminyl]-ethyl}-benzamide]"
5,4,"O=C(CCNC(=O)c1ccc(Cl)s1)Nc1ccc(-n2ccncc2=O)cc1F [Example 6, 5-Chloro-thiophene-2-carboxylic acid {2-[2-fluoro-4-(2-oxo-2H-pyrazin-1-yl)-phenylcarbaminyl]-ethyl}-amide]"
6,4000,"O=C(CCNC(=O)c1ccc(Cl)cc1)Nc1ccc(-n2ccc(=O)cc2)cc1 [Example 22, 4-Chloro-N-{2-[4-(4-oxo-4H-pyridin-1-yl)-phenylcarbaminyl]-ethyl}-benzamide]"
7,7,"O=C(CCNC(=O)c1ccc(Cl)s1)Nc1ccc(-n2ccncc2=O)cc1 [Example 2, 5-Chloro-thiophene-2-carboxylic acid {2-[4-(2-oxo-2H-pyrazin-1-yl)-phenylcarbaminyl]-ethyl}-amide]"
8,8,"O=C(NCCC(=O)n1ccc2cc(-n3ccncc3=O)ccc21)c1ccc(Cl)s1 [Example 5, 5-Chloro-thiophene-2-carboxylic acid {3-oxo-3-[5-(2-oxo-2H-pyrazin-1-yl)-indol-1-yl]-propyl}-amide]"

# Continued, molecule first:
row,SMILES,Ki [nM]
1,"O=C(NCCC(=O)N1CCc2cc(-n3ccncc3=O)ccc21)c1ccc(Cl)s1 [Example 4, 5-Chloro-thiophene-2-carboxylic acid {3-oxo-3-[5-(2-oxo-2H-pyrazin-1-yl)-2,3-dihydro-indol-1-yl]-propyl}-amide]",40
2,"O=C(CCNC(=O)c1ccc(Cl)s1)Nc1ccc(-n2ccccc2=O)cc1C(=O)O [Example 20, 2-{3-[(5-Chloro-thiophene-2-carbonyl)-amino]-propionylamino}-5-(2-oxo-2H-pyridin-1-yl)-benzoic acid]",11
3,"COC(=O)CN(C(=O)CCNC(=O)c1ccc(Cl)s1)c1ccc(N2CCOCC2=O)cc1 [Example 23, {{3-[(5-Chloro-thiophene-2-carbonyl)-amino]-propionyl}-[4-(3-oxo-morpholin-4-yl)-phenyl]-amino}-acetic acid methyl ester]",212
4,"COC(=O)c1cc(N2CCOCC2=O)ccc1NC(=O)CCNC(=O)c1ccc(Cl)s1 [Example 18, 2-{3-[(5-Chloro-thiophene-2-carbonyl)-amino]-propionylamino}-5-(3-oxo-morpholin-4-yl)-benzoic acid methyl ester]",3
5,"O=C(CCNC(=O)c1ccc(Cl)s1)Nc1ccc(N2CCOCC2=O)c(F)c1 [Example 16, 5-Chloro-thiophene-2-carboxylic acid {2-[3-fluoro-4-(3-oxo-morpholin-4-yl)-phenylcarbaminyl]-ethyl}-amide]",15
6,"O=C(N[C@H](CNC(=O)c1ccc(Cl)s1)C(=O)Nc1ccc(N2CCOCC2=O)c(C(F)(F)F)c1)OCc1ccccc1 [Example 26, {(R)-2-[(5-Chloro-thiophene-2-carbonyl)-amino]-1-[4-(3-oxo-morpholin-4-yl)-3-trifluoromethyl-phenylcarbaminyl]-ethyl}-carbamic acid benzyl ester]",12
7,"COC(=O)c1cc(-n2ccccc2=O)ccc1NC(=O)CCNC(=O)c1ccc(Cl)s1 [Example 19, 2-{3-[(5-Chloro-thiophene-2-carbonyl)-amino]-propionylamino}-5-(2-oxo-2H-pyridin-1-yl)-benzoic acid methyl ester]",2
8,"O=C(NCC(F)(F)C(=O)Nc1ccc(N2CCOCC2=O)cc1)c1ccc(Cl)s1 [Example 11, 5-Chloro-thiophene-2-carboxylic acid {2,2-difluoro-2-[4-(3-oxo-morpholin-4-yl)-phenylcarbaminyl]-ethyl}-amide]",18
9,"O=C(NCCC(=O)N(CC(F)F)c1ccc(N2CCOCC2=O)cc1)c1ccc(Cl)s1 [Example 25, 5-Chloro-thiophene-2-carboxylic acid (2-{(2,2-difluoro-ethyl)-[4-(3-oxo-morpholin-4-yl)-phenyl]-carbamoyl}-ethyl)-amide]",383
10,"O=C(O)CN(C(=O)CCNC(=O)c1ccc(Cl)s1)c1ccc(N2CCOCC2=O)cc1 [Example 24, {{3-[(5-Chloro-thiophene-2-carbonyl)-amino]-propionyl}-[4-(3-oxo-morpholin-4-yl)-phenyl]-amino}-acetic acid]",228
11,"O=C(NC[C@@H](NCC(F)F)C(=O)Nc1ccc(N2CCOCC2=O)c(C(F)(F)F)c1)c1ccc(Cl)s1 [Example 7, 5-Chloro-thiophene-2-carboxylic acid {(R)-2-(2,2-difluoro-ethylamino)-2-[4-(3-oxo-morpholin-4-yl)-3-trifluoromethyl-phenylcarbaminyl]-ethyl}-amide]",59
12,"O=C(CCNC(=O)c1ccc(Cl)s1)Nc1ccc(N2CCOCC2=O)nc1 [Example 15, 5-Chloro-thiophene-2-carboxylic acid {2-[6-(3-oxo-morpholin-4-yl)-pyridin-3-ylcarbamoyl]-ethyl}-amide]",194
13,"O=C(CCNS(=O)(=O)c1ccc(Cl)s1)Nc1ccc(N2CCOCC2=O)cc1 [Example 8, 3-(5-Chloro-thiophene-2-sulfonylamino)-N-[4-(3-oxo-morpholin-4-yl)-phenyl]-propionamide]",375
14,"O=C(CCNC(=O)c1ccc(Cl)s1)Nc1ccc(N2CCOCS2(=O)=O)cc1 [Example 9, 5-Chloro-thiophene-2-carboxylic acid {2-[4-(3,3-dioxo-[1,3,4]oxathiazinan-4-yl)-phenylcarbaminyl]-ethyl}-amide]",30
15,"O=C(CCNC(=O)c1ccc(Cl)s1)Nc1ccc(N2CCOCC2=O)c(C(=O)O)c1 [Example 14, 5-{3-[(5-Chloro-thiophene-2-carbonyl)-amino]-propionylamino}-2-(3-oxo-morpholin-4-yl)-benzoic acid]",30000
16,"COC(=O)c1cc(NC(=O)CCNC(=O)c2ccc(Cl)s2)ccc1N1CCOCC1=O [Example 13, 5-{3-[(5-Chloro-thiophene-2-carbonyl)-amino]-propionylamino}-2-(3-oxo-morpholin-4-yl)-benzoic acid methyl ester]",263
